Results from ChEMBL document CHEMBL1201862, “PubChem BioAssay data set” (2004).
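Each compound was tested at five concentrations against cells in 96-well plates for 48 hours. Here, GI50 denotes the concentration required for 50% inhibition of growth.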 The source made the active and inactive calls. No stated cut-off is given here; in the data, active = GI50 up to about 1.1 µM and inactive = higher.

How the values were obtained:
Experiment in all cases: growth of human tumour cells (NCI), 48 h
[1] = system: MDA-MB-231
[2] = system: HCT-15
[3] = system: Malme-3M
[4] = system: MCF7
[5] = system: SW-620
[6] = system: NCI/ADR-RES
[7] = system: Hs-578T
[8] = system: HCT-116
[9] = system: NCI-H23
[10] = system: SK-MEL-5
[11] = system: OVCAR-3
[12] = system: LOX IMVI
[13] = system: COLO 205
[14] = system: KM12
[15] = system: NCI-H226
[16] = system: SF-268
[17] = system: UACC-62
[18] = system: OVCAR-8

| SMILES | GI50 [1] | GI50 [2] [µM] | GI50 [3] | GI50 [4] | GI50 [5] | GI50 [6] | GI50 [7] | GI50 [8] | GI50 [9] | GI50 [10] | GI50 [11] | GI50 [12] | GI50 [13] | GI50 [14] | GI50 [15] | GI50 [16] | GI50 [17] | GI50 [18] |
| --- | --- | --- | --- | --- | --- | --- | --- | --- | --- | --- | --- | --- | --- | --- | --- | --- | --- | --- |
| CC1(C)CCC2=C(O1)/C(=N\Nc1ccc(F)cc1)c1ccccc1C2=O | 46.7 µM (inactive) | 43.6 | 30.6 µM (inactive) | 27.3 µM (inactive) | 25.5 µM (inactive) | 71.8 µM (inactive) | 28.4 µM (inactive) | 31.3 µM (inactive) | 25.2 µM (inactive) | 8.91 µM (inactive) | 21 µM (inactive) | 11.5 µM (inactive) | 35.1 µM (inactive) | 31.3 µM (inactive) | > 100 µM (inactive) | 52.1 µM (inactive) | 14.7 µM (inactive) | 41.8 µM (inactive) |
| CC(=O)Nc1ccc2c(c1)C(=O)c1cccc(F)c1-2 | 30.4 µM (inactive) | 24.7 | > 100 µM (inactive) | 4.33 µM (inactive) | 57.3 µM (inactive) | 48.2 µM (inactive) | 37.2 µM (inactive) | 24.2 µM (inactive) | 43.9 µM (inactive) | 45.4 µM (inactive) | 68.2 µM (inactive) | 38.2 µM (inactive) | 53 µM (inactive) | 0.401 µM (active) | 35.2 µM (inactive) | 48.1 µM (inactive) | 38 µM (inactive) | 58.2 µM (inactive) |
| Cc1occc1C(=S)Nc1ccc(Cl)c(/C=N/OC(C)(C)C)c1 | 19.7 µM (inactive) | 15 | 21.8 µM (inactive) | 18.1 µM (inactive) | 18.5 µM (inactive) | 14.7 µM (inactive) | 19.8 µM (inactive) | 13.5 µM (inactive) | 15.3 µM (inactive) | 17.3 µM (inactive) | 15.6 µM (inactive) | 13.1 µM (inactive) | 17.5 µM (inactive) | 15.3 µM (inactive) | 16.9 µM (inactive) | 22.6 µM (inactive) | 14.3 µM (inactive) | 18.9 µM (inactive) |
| CC(=O)OC1CCC2(C)C(CCC3C2CC(=O)C2(C)C3CC(N3CC3)C2C(C)=O)C1 (stereo unspecified) | 16.7 µM (inactive) | 18.9 | 18.7 µM (inactive) | 15.4 µM (inactive) | 21.1 µM (inactive) | 24.6 µM (inactive) | 15.1 µM (inactive) | 20.7 µM (inactive) | 16.7 µM (inactive) | 15.2 µM (inactive) | 26.2 µM (inactive) | 5.33 µM (inactive) | 15.8 µM (inactive) | 17.1 µM (inactive) | 19.1 µM (inactive) | 11.6 µM (inactive) | 16.2 µM (inactive) | 14 µM (inactive) |
| CC(=O)OCc1cncn1S(=O)(=O)c1ccc(C)cc1 | > 100 µM (inactive) | 20.3 | > 100 µM (inactive) | > 25.4 µM (inactive) | 36.4 µM (inactive) | > 55.5 µM (inactive) | > 78.5 µM (inactive) | 25.6 µM (inactive) | > 100 µM (inactive) | 24.2 µM (inactive) | 43.5 µM (inactive) | 30.8 µM (inactive) | 53.1 µM (inactive) | 31.7 µM (inactive) | > 100 µM (inactive) | > 100 µM (inactive) | > 91 µM (inactive) | > 91.4 µM (inactive) |
| CCNc1nnc(-c2ccccc2Nc2ccccc2-c2nnc(NCC)s2)s1 | 8.02 µM (inactive) | 4.37 | 19.2 µM (inactive) | 2.28 µM (inactive) | 19.4 µM (inactive) | 10.5 µM (inactive) | 12.3 µM (inactive) | 9.89 µM (inactive) | 14 µM (inactive) | 5.52 µM (inactive) | 18.3 µM (inactive) | 8.05 µM (inactive) | > 32.8 µM (inactive) | 9.46 µM (inactive) | 20.2 µM (inactive) | 13.4 µM (inactive) | 11.5 µM (inactive) | 13.6 µM (inactive) |
| COC(=O)[C@]1(c2cc3ccccc3[nH]2)CC2CN(C(=O)OCc3ccccc3)C1CC2=O (stereo partly specified) | 12.8 µM (inactive) | 27.5 | 20.7 µM (inactive) | 16.7 µM (inactive) | 29.6 µM (inactive) | 29.3 µM (inactive) | 19.4 µM (inactive) | 22.8 µM (inactive) | 29.7 µM (inactive) | 17.1 µM (inactive) | 28.8 µM (inactive) | 22.5 µM (inactive) | 16.5 µM (inactive) | 26.9 µM (inactive) | 18.2 µM (inactive) | 27.4 µM (inactive) | 17.1 µM (inactive) | 26.7 µM (inactive) |
| O=C1CN(/N=C/c2ccc(-c3ccc(F)cc3)o2)C(=O)N1 | > 100 µM (inactive) | 39 | 47.5 µM (inactive) | 49.1 µM (inactive) | 43 µM (inactive) | 25.9 µM (inactive) | 45.5 µM (inactive) | 50.8 µM (inactive) | 82.6 µM (inactive) | 26.4 µM (inactive) | > 100 µM (inactive) | 26.6 µM (inactive) | 29.7 µM (inactive) | 33.1 µM (inactive) | 32.2 µM (inactive) | > 100 µM (inactive) | 45.5 µM (inactive) | > 100 µM (inactive) |
| Nc1nc(Cl)c(N)c(NCC2(CO)CC2)n1 | > 100 µM (inactive) | > 100 | > 100 µM (inactive) | > 100 µM (inactive) | > 100 µM (inactive) | > 100 µM (inactive) | > 100 µM (inactive) | > 100 µM (inactive) | > 100 µM (inactive) | > 100 µM (inactive) | > 100 µM (inactive) | > 100 µM (inactive) | > 100 µM (inactive) | > 100 µM (inactive) | > 100 µM (inactive) | > 100 µM (inactive) | > 100 µM (inactive) | > 100 µM (inactive) |
| CCCCCCCCCCCCCCCCCCOCC(O)COP(=O)(O)OCC1OC(n2ccc(N)nc2=O)C(O)C1O (stereo unspecified) | 25.8 µM (inactive) | 15.5 | 7.05 µM (inactive) | 22 µM (inactive) | 35.6 µM (inactive) | 19.1 µM (inactive) | 36.4 µM (inactive) | 10.9 µM (inactive) | 26.1 µM (inactive) | 29.9 µM (inactive) | 43.5 µM (inactive) | 14.1 µM (inactive) | 10.9 µM (inactive) | 17.1 µM (inactive) | > 100 µM (inactive) | 16.9 µM (inactive) | 23.9 µM (inactive) | 6.31 µM (inactive) |
| CN(C)C(=S)Oc1ccc2ccc(=O)oc2c1 | > 100 µM (inactive) | > 100 | > 100 µM (inactive) | > 100 µM (inactive) | > 100 µM (inactive) | > 100 µM (inactive) | > 100 µM (inactive) | > 100 µM (inactive) | > 100 µM (inactive) | > 100 µM (inactive) | > 100 µM (inactive) | > 100 µM (inactive) | > 100 µM (inactive) | > 100 µM (inactive) | > 100 µM (inactive) | > 100 µM (inactive) | > 100 µM (inactive) | > 100 µM (inactive) |
| C=C(C)CNC(=S)N(N)c1ccc2ccccc2c1 | > 100 µM (inactive) | 5.01 | > 100 µM (inactive) | 26.5 µM (inactive) | > 100 µM (inactive) | 78 µM (inactive) | > 100 µM (inactive) | > 100 µM (inactive) | > 100 µM (inactive) | > 100 µM (inactive) | 88.5 µM (inactive) | > 100 µM (inactive) | > 100 µM (inactive) | 13.6 µM (inactive) | > 100 µM (inactive) | 78 µM (inactive) | 23.9 µM (inactive) | > 100 µM (inactive) |
